Earlier results on four substances are cited in US20020127259A1, “Rumen by-pass delivery system” (priority 1998, published 2002).

The conditions of the data set: given by Seghers in 1990.

Take Phosphatidylcholine: the “relative rate of phospholipid hydration” value is 100%. Take phosphatidic acid: the “relative rate of phospholipid hydration” value is reported as 8.5%.

Regarding “phosphatidylethanolamine [P-ethanolamine]”, the “relative rate of phospholipid hydration” value is listed as 16%. Turning to phosphatidylinositol, the “relative rate of phospholipid hydration” value is 44%.
